Measurements reported in ChEMBL document CHEMBL3867474, “Discovery of novel pyrrolidineoxy-substituted heteroaromatics as potent and selective PI3K delta inhibitors with improved physicochemical properties” (Bioorg Med Chem Lett, 2016).
In brackets after ≈: the same amount, converted by molar mass.

Key:
[1] = Solubility of the compound at pH 6.8 by high-throughput equilibrium analysis; assay type: physicochemical; conditions: buffer
[2] = biological target: T1, Phosphatidylinositol 4,5-bisphosphate 3-kinase catalytic subunit delta isoform (Homo sapiens, UniProt O00329); test: Inhibition of PI3K-delta (unknown origin) by KinaseGlo assay
T1 sequence (O00329 whole entry): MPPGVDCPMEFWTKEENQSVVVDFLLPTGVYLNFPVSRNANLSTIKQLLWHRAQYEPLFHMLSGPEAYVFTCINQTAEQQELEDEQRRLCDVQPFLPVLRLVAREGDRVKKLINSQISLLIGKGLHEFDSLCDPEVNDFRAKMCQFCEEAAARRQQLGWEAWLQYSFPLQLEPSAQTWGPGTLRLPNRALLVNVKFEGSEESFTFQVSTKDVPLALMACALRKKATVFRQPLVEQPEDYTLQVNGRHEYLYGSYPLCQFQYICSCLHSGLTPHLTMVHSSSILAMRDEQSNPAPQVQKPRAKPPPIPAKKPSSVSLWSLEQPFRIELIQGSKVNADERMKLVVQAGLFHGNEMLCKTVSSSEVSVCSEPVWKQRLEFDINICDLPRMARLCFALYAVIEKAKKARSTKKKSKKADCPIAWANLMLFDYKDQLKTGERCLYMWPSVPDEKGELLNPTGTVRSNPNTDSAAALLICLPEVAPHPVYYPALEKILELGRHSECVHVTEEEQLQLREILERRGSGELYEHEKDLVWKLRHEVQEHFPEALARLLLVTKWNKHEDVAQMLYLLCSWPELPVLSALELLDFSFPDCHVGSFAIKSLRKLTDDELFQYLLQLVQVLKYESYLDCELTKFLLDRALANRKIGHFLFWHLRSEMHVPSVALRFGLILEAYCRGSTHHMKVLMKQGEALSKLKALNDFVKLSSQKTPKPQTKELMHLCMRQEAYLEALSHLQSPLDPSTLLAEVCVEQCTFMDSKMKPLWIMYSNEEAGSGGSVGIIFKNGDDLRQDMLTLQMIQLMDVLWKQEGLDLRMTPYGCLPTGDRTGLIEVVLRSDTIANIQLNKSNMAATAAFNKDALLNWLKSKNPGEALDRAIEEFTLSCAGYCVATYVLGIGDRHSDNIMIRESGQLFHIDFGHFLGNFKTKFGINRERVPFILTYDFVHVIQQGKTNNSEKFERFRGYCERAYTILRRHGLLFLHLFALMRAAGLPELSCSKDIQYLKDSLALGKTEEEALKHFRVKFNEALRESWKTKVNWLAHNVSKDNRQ

[3] = biological target: T2, Phosphatidylinositol 4,5-bisphosphate 3-kinase catalytic subunit beta isoform (Homo sapiens, UniProt P42338); test: Inhibition of PI3K-beta (unknown origin) by KinaseGlo assay
[4] = biological target: Phosphatidylinositol 4,5-bisphosphate 3-kinase catalytic subunit gamma isoform (Homo sapiens, UniProt P48736); test: Inhibition of PI3K-gamma (unknown origin) by KinaseGlo assay
[5] = Lipophilicity, log P of the compound by high-throughput assay; assay type: physicochemical; conditions: octanol/water
[6] = biological target: T3, Phosphatidylinositol 4,5-bisphosphate 3-kinase catalytic subunit alpha isoform (Homo sapiens, UniProt P42336); test: Inhibition of PI3K-alpha (unknown origin) by KinaseGlo assay
[7] = Inhibition of PI3K-delta in rat whole blood assessed as inhibition of anti-IgM/IL4 induced CD86 expression; assay type: tissue-based
[8] = biological target: T1, Phosphatidylinositol 4,5-bisphosphate 3-kinase catalytic subunit delta isoform; test: Inhibition of myristoylated PI3K-delta (unknown origin) overexpressed in Rat1 cells assessed as inhibition of Akt phosphorylation; assay type: cell-based
[9] = biological target: T2, Phosphatidylinositol 4,5-bisphosphate 3-kinase catalytic subunit beta isoform; test: Inhibition of myristoylated PI3K-beta (unknown origin) overexpressed in Rat1 cells assessed as inhibition of Akt phosphorylation; assay type: cell-based
[10] = biological target: T3, Phosphatidylinositol 4,5-bisphosphate 3-kinase catalytic subunit alpha isoform; test: Inhibition of myristoylated PI3K-alpha (unknown origin) overexpressed in Rat1 cells assessed as inhibition of Akt phosphorylation; assay type: cell-based
[11] = biological target: T4, Phosphatidylinositol 4,5-bisphosphate 3-kinase catalytic subunit delta isoform (Mus musculus, UniProt O35904); test: Inhibition of PI3K-delta in mouse splenocytes assessed as inhibition anti-IgM induced CD86 expression; assay type: cell-based
T4 sequence (O35904 whole entry): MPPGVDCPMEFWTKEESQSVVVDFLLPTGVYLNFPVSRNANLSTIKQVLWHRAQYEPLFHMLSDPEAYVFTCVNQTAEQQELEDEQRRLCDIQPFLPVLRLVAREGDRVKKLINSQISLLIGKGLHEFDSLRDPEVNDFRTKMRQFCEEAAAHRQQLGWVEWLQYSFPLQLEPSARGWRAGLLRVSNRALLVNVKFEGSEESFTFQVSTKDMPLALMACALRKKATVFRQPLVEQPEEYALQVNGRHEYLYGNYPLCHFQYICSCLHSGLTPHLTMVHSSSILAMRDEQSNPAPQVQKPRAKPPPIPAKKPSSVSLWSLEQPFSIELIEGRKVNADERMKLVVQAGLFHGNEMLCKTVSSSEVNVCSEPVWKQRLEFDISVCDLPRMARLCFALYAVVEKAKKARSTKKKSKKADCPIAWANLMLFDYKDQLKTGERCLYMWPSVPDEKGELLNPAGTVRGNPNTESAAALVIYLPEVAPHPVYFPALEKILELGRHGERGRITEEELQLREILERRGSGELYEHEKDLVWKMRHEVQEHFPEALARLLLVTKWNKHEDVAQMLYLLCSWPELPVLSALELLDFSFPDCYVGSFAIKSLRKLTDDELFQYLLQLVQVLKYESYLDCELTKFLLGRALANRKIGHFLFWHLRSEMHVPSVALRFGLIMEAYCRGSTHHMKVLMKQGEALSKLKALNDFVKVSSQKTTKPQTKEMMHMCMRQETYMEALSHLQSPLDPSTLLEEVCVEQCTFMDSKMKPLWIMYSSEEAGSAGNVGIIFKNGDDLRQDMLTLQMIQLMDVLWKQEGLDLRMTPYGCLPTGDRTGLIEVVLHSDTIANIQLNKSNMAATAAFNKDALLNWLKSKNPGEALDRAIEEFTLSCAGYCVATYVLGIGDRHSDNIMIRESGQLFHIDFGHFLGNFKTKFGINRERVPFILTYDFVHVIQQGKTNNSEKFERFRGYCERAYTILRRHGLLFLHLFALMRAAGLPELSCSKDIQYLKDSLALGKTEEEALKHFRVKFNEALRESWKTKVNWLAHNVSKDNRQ

Rat1 = test: Selectivity ratio of IC50 for PI3K-delta in rat whole blood to IC50 for myristoylated PI3K-delta (unknown origin) overexpressed in Rat1 cells; assay type: cell-based
[12] = biological target: T5, Phosphatidylinositol 4,5-bisphosphate 3-kinase catalytic subunit delta isoform (Homo sapiens) (UniProt O00329); test: Selectivity ratio of IC50 for myristoylated PI3K-delta (unknown origin) overexpressed in Rat1 cells to IC50 for PI3K-delta (unknown origin); assay type: cell-based
T5 sequence (whole entry): T1 sequence (O00329 whole entry)

T3 sequence (P42336 whole entry, canonical isoform): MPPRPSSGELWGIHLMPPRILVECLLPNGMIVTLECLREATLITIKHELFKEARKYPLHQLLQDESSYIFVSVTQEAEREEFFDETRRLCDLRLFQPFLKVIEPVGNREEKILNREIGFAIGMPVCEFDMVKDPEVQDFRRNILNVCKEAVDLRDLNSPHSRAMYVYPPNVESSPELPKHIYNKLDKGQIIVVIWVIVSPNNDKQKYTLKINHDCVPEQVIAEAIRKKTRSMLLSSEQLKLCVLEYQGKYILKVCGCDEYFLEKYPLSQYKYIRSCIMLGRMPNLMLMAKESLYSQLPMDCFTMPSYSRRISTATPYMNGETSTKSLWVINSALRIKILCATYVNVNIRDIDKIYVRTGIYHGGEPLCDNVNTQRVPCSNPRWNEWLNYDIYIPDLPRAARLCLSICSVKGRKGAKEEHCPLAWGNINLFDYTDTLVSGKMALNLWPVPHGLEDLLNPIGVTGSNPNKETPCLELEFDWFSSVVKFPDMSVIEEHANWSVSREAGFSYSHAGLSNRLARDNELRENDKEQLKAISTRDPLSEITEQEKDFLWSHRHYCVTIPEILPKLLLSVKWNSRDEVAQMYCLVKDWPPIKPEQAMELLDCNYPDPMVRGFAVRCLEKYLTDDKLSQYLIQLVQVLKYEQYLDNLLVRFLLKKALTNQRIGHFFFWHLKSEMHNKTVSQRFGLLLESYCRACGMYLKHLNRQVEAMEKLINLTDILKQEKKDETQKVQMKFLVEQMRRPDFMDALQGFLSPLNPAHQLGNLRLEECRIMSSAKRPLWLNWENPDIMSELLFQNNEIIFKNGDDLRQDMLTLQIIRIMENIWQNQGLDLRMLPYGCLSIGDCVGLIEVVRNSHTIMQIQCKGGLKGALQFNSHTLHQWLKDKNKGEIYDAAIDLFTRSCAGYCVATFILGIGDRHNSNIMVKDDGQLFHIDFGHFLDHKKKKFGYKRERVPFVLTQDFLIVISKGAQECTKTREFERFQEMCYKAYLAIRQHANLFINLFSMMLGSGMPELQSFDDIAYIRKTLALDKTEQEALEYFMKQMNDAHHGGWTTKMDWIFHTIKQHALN
T2 sequence (P42338 whole entry, canonical isoform): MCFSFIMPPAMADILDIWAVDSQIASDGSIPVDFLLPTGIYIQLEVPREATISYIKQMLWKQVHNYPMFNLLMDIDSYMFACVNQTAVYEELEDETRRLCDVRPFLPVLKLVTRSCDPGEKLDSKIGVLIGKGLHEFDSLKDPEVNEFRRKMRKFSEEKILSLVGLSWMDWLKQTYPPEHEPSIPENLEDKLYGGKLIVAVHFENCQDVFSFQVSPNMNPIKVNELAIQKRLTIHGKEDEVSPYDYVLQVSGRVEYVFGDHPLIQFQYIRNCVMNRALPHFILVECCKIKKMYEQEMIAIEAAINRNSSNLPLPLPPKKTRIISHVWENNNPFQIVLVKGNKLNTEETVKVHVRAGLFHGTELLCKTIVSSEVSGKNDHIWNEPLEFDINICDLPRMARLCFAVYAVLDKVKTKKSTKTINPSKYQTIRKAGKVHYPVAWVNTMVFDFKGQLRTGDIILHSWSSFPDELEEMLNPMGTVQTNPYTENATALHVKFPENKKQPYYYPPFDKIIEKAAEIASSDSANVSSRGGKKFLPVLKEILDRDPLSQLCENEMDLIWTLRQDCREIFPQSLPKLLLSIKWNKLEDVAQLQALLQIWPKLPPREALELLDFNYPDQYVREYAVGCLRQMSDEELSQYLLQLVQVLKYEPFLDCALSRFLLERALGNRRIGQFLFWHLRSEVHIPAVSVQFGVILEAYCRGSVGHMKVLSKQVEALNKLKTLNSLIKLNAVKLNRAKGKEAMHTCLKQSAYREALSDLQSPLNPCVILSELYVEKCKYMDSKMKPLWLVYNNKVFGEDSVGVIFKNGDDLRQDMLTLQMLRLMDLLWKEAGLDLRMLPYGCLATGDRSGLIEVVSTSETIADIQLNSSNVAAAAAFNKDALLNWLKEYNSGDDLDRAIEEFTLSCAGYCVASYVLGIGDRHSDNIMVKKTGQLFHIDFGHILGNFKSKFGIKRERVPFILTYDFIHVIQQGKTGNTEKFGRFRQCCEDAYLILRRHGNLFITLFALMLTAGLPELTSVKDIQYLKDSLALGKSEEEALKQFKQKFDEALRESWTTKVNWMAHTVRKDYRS
Chain of Phosphatidylinositol 4,5-bisphosphate 3-kinase catalytic subunit gamma isoform (P48736 whole entry, canonical isoform): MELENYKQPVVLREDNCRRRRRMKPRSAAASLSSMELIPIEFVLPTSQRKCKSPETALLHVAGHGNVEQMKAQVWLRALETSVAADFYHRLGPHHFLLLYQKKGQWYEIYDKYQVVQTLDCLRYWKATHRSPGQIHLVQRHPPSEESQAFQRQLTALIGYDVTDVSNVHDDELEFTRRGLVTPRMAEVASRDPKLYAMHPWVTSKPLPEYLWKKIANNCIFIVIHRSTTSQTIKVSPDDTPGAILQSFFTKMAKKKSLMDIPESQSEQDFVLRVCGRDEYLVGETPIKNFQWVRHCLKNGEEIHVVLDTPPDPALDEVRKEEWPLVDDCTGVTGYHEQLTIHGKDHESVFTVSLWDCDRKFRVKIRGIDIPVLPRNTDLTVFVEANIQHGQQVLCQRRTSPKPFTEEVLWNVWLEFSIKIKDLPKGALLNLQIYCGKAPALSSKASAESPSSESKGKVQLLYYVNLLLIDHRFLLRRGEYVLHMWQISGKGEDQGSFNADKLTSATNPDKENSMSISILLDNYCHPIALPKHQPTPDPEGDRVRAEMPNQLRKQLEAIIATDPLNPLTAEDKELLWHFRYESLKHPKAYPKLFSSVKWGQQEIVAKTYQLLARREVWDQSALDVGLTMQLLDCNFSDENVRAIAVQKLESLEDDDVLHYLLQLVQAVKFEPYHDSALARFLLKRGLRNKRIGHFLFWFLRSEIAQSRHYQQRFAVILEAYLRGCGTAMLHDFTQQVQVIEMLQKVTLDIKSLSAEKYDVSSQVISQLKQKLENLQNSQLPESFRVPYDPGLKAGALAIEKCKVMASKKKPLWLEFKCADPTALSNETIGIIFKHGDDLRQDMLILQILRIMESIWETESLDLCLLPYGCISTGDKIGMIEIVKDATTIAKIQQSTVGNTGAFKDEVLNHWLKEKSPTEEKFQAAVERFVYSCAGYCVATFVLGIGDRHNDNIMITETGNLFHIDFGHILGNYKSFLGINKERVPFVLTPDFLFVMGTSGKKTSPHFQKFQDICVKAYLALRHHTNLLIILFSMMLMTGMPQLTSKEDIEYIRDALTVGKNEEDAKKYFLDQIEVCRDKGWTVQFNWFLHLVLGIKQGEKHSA

Row | Structure (SMILES) | solubility thermodynamic [1] | IC50 [2] | IC50 [3] | IC50 [4] | logP [5] | IC50 [6] | IC50 [7] | IC50 [8] | IC50 [9] | IC50 [10] | IC50 [11] | Ratio IC50 [12] | Ratio IC50 (Rat1)
1 | CCC(=O)N1CC[C@H](Oc2ncnc3ccc(-c4cnc(OC)c(C#N)c4)cc23)C1 | 10 µM (≈ 4.03 µg/mL) | 5 nM | 360 nM | 978 nM | 2.6 | 386 nM |  | 79 nM | 1280 nM | 1380 nM |  | 16 | 
2 | COc1ccc(-c2ccc3ncnc(-c4cccc(C(=O)N5CCN(C(C)=O)CC5)c4)c3c2)cc1OC | 610 µM (≈ 303 µg/mL) |  |  |  |  |  |  |  |  |  |  |  | 
3 | CCC(=O)N1CC[C@H](Oc2ccnc3ccc(-c4ccc(OC)nc4)cc23)C1 | > 1000 µM | 11 nM | 655 nM | 828 nM | 3.4 | 220 nM | 377 nM | 162 nM | 877 nM | 606 nM | 155 nM | 15 | 2.3
4 | CCC(=O)N1CC[C@H](Oc2ncnc3ccc(-c4ccc(OC)nc4)cc23)C1 | > 1000 µM | 9 nM | 669 nM | 698 nM | 2.8 | 218 nM | 297 nM | 28 nM | 1780 nM | 1030 nM | 82 nM | 3 | 11
5 | CCC(=O)N1CC[C@H](Oc2ccnc3ccc(-c4ccc(OC)nc4)nc23)C1 | > 1000 µM | 22 nM | 1030 nM | 2940 nM | 2.2 | 424 nM |  | 646 nM | 3210 nM | 2360 nM |  | 29 | 
6 | CCC(=O)N1CC[C@H](Oc2cnnc3ccc(-c4ccc(OC)nc4)cc23)C1 | 370 µM (≈ 140 µg/mL) | 188 nM | 9010 nM | > 9100 nM | 2.8 | 5080 nM |  | 2840 nM | > 10000 nM | > 10000 nM |  | 13 | 

Further lines, with some results ahead:

Row | solubility thermodynamic [1] | IC50 [2] | IC50 [3] | IC50 [4] | logP [5] | IC50 [6] | IC50 [7] | IC50 [8] | IC50 [9] | IC50 [10] | IC50 [11] | Ratio IC50 [12] | Structure (SMILES) | Ratio IC50 (Rat1)
7 | > 1000 µM | 110 nM | 1940 nM | 2070 nM | 3.6 | 842 nM |  |  |  |  |  |  | COc1ccc(-c2ccc3ncnc(O[C@@H]4CCN(C)C4)c3c2)cc1OC | 
8 | 40 µM (≈ 16.3 µg/mL) | 15 nM | 860 nM | 366 nM | 3.8 | 491 nM | 282 nM | 72 nM | 2130 nM | 1860 nM | 85 nM | 5 | CCC(=O)N1CC[C@@H](Oc2cnc3ccc(-c4ccc(OC)c(OC)c4)cc3n2)C1 | 4
9 | 9 µM (≈ 4.06 µg/mL) | 10 nM | 956 nM | 282 nM | 5.3 | 148 nM |  | 44 nM | 1520 nM | 262 nM |  | 4 | COc1ccc(-c2ccc3ncnc(O[C@H]4CCN(C(=O)OC(C)(C)C)C4)c3c2)cc1OC | 
10 | 6 µM (≈ 2.71 µg/mL) | 256 nM | 3880 nM | 642 nM | 4.9 | 693 nM |  |  |  |  |  |  | COc1ccc(-c2ccc3ncnc(O[C@@H]4CCN(C(=O)OC(C)(C)C)C4)c3c2)cc1OC | 
11 | 80 µM (≈ 32.6 µg/mL) | 488 nM | > 9100 nM | 3780 nM | 3.7 | 3230 nM |  |  |  |  |  |  | CCC(=O)N1CC[C@H](Oc2cnc3ccc(-c4ccc(OC)c(OC)c4)cc3n2)C1 | 
12 | > 1000 µM | 130 nM | 1480 nM | 1210 nM | 3.6 | 888 nM |  |  |  |  |  |  | COc1ccc(-c2ccc3ncnc(O[C@H]4CCN(C)C4)c3c2)cc1OC | 
13 | > 1000 µM | 16 nM | 304 nM | 194 nM | 2.6 | 126 nM |  | 82 nM | 407 nM | 210 nM |  | 5 | COc1ccc(-c2ccc3ncnc(O[C@H]4CCN(C(C)=O)C4)c3c2)cc1OC | 
14 | > 1000 µM | 146 nM | 1790 nM | 1230 nM | 2.4 | 676 nM |  |  |  |  |  |  | COc1ccc(-c2ccc3ncnc(O[C@@H]4CCN(C(C)=O)C4)c3c2)cc1OC | 
